Reference: US20130131178A1, “USE OF OXALOACETATE IN THE TREATMENT OF ISCHAEMIA” (UNIVERSIDADE DE SANTIAGO DE COMPOSTELA, priority 2010, published 2013)

Columns and labels:
Type in all cases: in vivo, male Sprague-Dawley (SD) rats
[1] = system: Middle cerebral artery occlusion (MCAO) model of cerebral ischaemia; assay: Infarct and oedema volumes by magnetic resonance imaging in the MCAO model of cerebral ischaemia; conditions: 3.5 mg/100 g IV 90 minutes post-occlusion
Protocol: The oxaloacetate used (Sigma-Aldrich, Ref, 171263, 95%) was dissolved in saline solution to a concentration of 10 mg/mL and the pH adjusted to 7.4. As the average weight of the experimental animals was 325 g and the dose administered was 3.5 mg/100 g body weight, each animal received an average volume of 1.2 mL of 10 mg/mL oxaloacetate. The study protocols for male Sprague-Dawley (SD) rats (Charles River Laboratories; France) weighing between 300 and 350 g were approved by the Animal Use and Care Committee at the Hospital de Santiago de Compostela. Anaesthesia was induced by inhalation of 5% sevoflurane in a mixture of nitrous oxide and oxygen (70/30). A rectal temperature of 37.5° C. was maintained. Glucose levels (180-220 mg/dL) were analysed prior to the intervention. Middle cerebral artery occlusion (MCAO) was used as a model of cerebral ischaemia, as described in the literature (Longa, E. Z., et al., Reversible middle cerebral artery occlusion without craniectomy in rats. Stroke, 1989. 20(1): p. 84-91). […] The infarct and oedema volumes were determined by magnetic resonance imaging. […] The blood glutamate levels and infarct and oedema volumes were determined in both groups. […]

blood glutamate levels [2] = assay: Effect of oxaloacetate on blood glutamate levels in an animal model of focal ischaemia (MCAO); conditions: 3.5 mg/100 g IV 90 minutes post-occlusion, 4 hours post-occlusion
Protocol: The oxaloacetate used (Sigma-Aldrich, Ref, 171263, 95%) was dissolved in saline solution to a concentration of 10 mg/mL and the pH adjusted to 7.4. As the average weight of the experimental animals was 325 g and the dose administered was 3.5 mg/100 g body weight, each animal received an average volume of 1.2 mL of 10 mg/mL oxaloacetate.
(§1) The study protocols for male Sprague-Dawley (SD) rats (Charles River Laboratories; France) weighing between 300 and 350 g were approved by the Animal Use and Care Committee at the Hospital de Santiago de Compostela.
Anaesthesia was induced by inhalation of 5% sevoflurane in a mixture of nitrous oxide and oxygen (70/30). A rectal temperature of 37.5° C. was maintained. Glucose levels (180-220 mg/dL) were analysed prior to the intervention. […]
(§2) Aspartate and glutamate levels in blood were analysed according to the method described in the following reference (White, J. A., R. J. Hart, and J. C. Fry, An evaluation of the Waters Pico-Tag system for the amino-acid analysis of food materials. J Automat Chem, 1986. 8(4): p. 170-7).
Two groups were designed: an MCAO group treated with saline (control group) and an MCAO group treated with 3.5 mg/100 g oxaloacetate IV 90 minutes post-occlusion. The blood glutamate levels and infarct and oedema volumes were determined in both groups. […]

blood glutamate levels [3] = assay: Effect of oxaloacetate administration on blood glutamate and aspartate levels in healthy animals; design: effect on glutamate levels: dose or concentration left out as unconfirmed
Protocol: The oxaloacetate used (Sigma-Aldrich, Ref, 171263, 95%) was dissolved in saline solution to a concentration of 10 mg/mL and the pH adjusted to 7.4. […]
as §1
Anaesthesia was induced by inhalation of 5% sevoflurane in a mixture of nitrous oxide and oxygen (70/30). A rectal temperature of 37.5° C. was maintained. Glucose levels (180-220 mg/dL) were analysed prior to the intervention.
as §2
Likewise, no changes in aspartate levels were observed (FIG. 1b).
This increase in aspartate levels confirms that glutamate is being metabolised by the enzyme GOT as a result of oxaloacetate treatment.
The […] and aspartate levels in blood were established in a control group treated with saline.

Structure (SMILES): O=C(O)CC(=O)C(=O)O [oxaloacetate]
- infarct volume smaller than in the control group ([1]; 24 hours post-ischaemia): approximately 40%
- decrease of infarct volume ([1]; at 7 days): 80%
- drop of blood glutamate levels below basal levels (blood glutamate levels [2]): 50%
- effect on glutamate levels (blood glutamate levels [3]; administration via bolus (IV)): no effect
- decrease in serum glutamate levels with respect to basal levels (blood glutamate levels [3]; healthy animals, 3.5 mg/100 g IV, two hours post-administration): 60%
